Laboratory results from patent publication US20210069108A1, “METHODS FOR PREVENTION AND TREATMENT OF PRESSURE ULCERS CAUSED BY ISCHEMIA USING CONTACT VASODILATORS” (priority 2018, published 2021).

System: pressure ulcer
Experiment: topical composition applied to one pressure ulcer of a patient, another pressure ulcer left untreated
Assay type: in vivo
Details: patient diagnosed with pressure ulcers
Source text: A patient is diagnosed with pressure ulcers. A topical composition comprising the calcium channel blocker nifedipine is applied to one pressure ulcer while another pressure ulcer is left untreated. […] A patient is diagnosed with pressure ulcers. A topical composition comprising the ACE inhibitor enalapril is applied to one pressure ulcer while another pressure ulcer is left untreated. […] A patient is diagnosed with pressure ulcers. A topical composition comprising the angiotensin receptor blocker losartan is applied to one pressure ulcer while another pressure ulcer is left untreated.

SMILES | healing of the treated pressure ulcer compared with the untreated pressure ulcer
CCOC(=O)[C@H](CCc1ccccc1)N[C@@H](C)C(=O)N1CCC[C@H]1C(=O)O [enalapril] | heal faster than the untreated pressure ulcer
CCCCc1nc(Cl)c(CO)n1Cc1ccc(-c2ccccc2-c2nn[nH]n2)cc1 [losartan] | heal faster than the untreated pressure ulcer
